Results published in ChEMBL document CHEMBL3885881, “DrugMatrix”.

Species on record: Rattus norvegicus
Experiment: DrugMatrix - Regimen: Daily Repeat
Assay type: toxicity, organism-based, Sprague-Dawley
Parameters: regimen Daily Repeat, gender Male, age 6-8 weeks
Conditions: in vivo, po, route oral GAVAGE, vehicle 100 % WATER; for NUCLEATED RED BLOOD CELLS / PLATELET COUNT / ABSOLUTE BASOPHIL / ABSOLUTE EOSINOPHIL / ABSOLUTE LYMPHOCYTE / ABSOLUTE MONOCYTE / ABSOLUTE SEGMENTED NEUTROPHIL / BASOPHIL / EOSINOPHIL / ERYTHROCYTE COUNT / HEMATOCRIT / LEUKOCYTE COUNT / LYMPHOCYTE / MEAN CORPUSCULAR HEMOGLOBIN / MEAN CORPUSCULAR HEMOGLOBIN CONCENTRATION / MEAN CORPUSCULAR VOLUME / MONOCYTE / NEUTROPHIL: tissue Blood; for ALANINE AMINOTRANSFERASE / ALBUMIN / ALKALINE PHOSPHATASE / ASPARTATE AMINOTRANSFERASE / BLOOD UREA NITROGEN / CARBON DIOXIDE / CHLORIDE / CHOLESTEROL / CREATINE PHOSPHOKINASE / CREATININE / LIPASE / POTASSIUM / TOTAL BILIRUBIN / TOTAL PROTEIN: tissue Plasma
[1] = 44 mg/kg, 120 h, dose level Low, time 5 day
[2] = 600 mg/kg, 72 h, dose level M1, time 3 day
[3] = 600 mg/kg, 120 h, dose level M1, time 5 day
[4] = 1200 mg/kg, 72 h, dose level High, time 3 day

NC(=O)c1ncn([C@@H]2O[C@H](CO)[C@@H](O)[C@H]2O)n1 [RIBAVIRIN]
NUCLEATED RED BLOOD CELLS [1]: 0 /100WBC | PLATELET COUNT [1]: 1248.67 x10E3/uL | ALANINE AMINOTRANSFERASE [1]: 43 u/L | ALBUMIN [1]: 4.37 G/DL | ALKALINE PHOSPHATASE [1]: 347 u/L | ASPARTATE AMINOTRANSFERASE [1]: 75.33 u/L | BLOOD UREA NITROGEN [1]: 13.67 mg/dL | CARBON DIOXIDE [1]: 26 mmol/L | CHLORIDE [1]: 102 MEQ/L | CHOLESTEROL [1]: 63 mg/dL | CREATINE PHOSPHOKINASE [1]: 230.67 u/L | CREATININE [1]: 0.16 mg/dL | LIPASE [1]: 8 u/L | POTASSIUM [1]: 6.69 MEQ/L | TOTAL BILIRUBIN [1]: 0.2 mg/dL | TOTAL PROTEIN [1]: 6 G/DL | ABSOLUTE BASOPHIL [2]: 0 CELLS/uL | ABSOLUTE EOSINOPHIL [2]: 216 CELLS/uL | ABSOLUTE LYMPHOCYTE [2]: 9535 CELLS/uL | ABSOLUTE MONOCYTE [2]: 0 CELLS/uL | ABSOLUTE SEGMENTED NEUTROPHIL [2]: 1715.67 CELLS/uL | BASOPHIL [2]: 0% | EOSINOPHIL [2]: 2% | ERYTHROCYTE COUNT [2]: 6.28 x10E6/uL | HEMATOCRIT [2]: 39.7% | LEUKOCYTE COUNT [2]: 11.47 x10E3/uL | LYMPHOCYTE [2]: 82.67% | MEAN CORPUSCULAR HEMOGLOBIN [2]: 23.53 pg | MEAN CORPUSCULAR HEMOGLOBIN CONCENTRATION [2]: 37.3 G/DL | MEAN CORPUSCULAR VOLUME [2]: 63.2 fL | MONOCYTE [2]: 0% | NEUTROPHIL [2]: 15.33% | NUCLEATED RED BLOOD CELLS [2]: 0 /100WBC | PLATELET COUNT [2]: 1269.33 x10E3/uL | ALANINE AMINOTRANSFERASE [2]: 185 u/L | ALBUMIN [2]: 3.7 G/DL | ALKALINE PHOSPHATASE [2]: 293.33 u/L | ASPARTATE AMINOTRANSFERASE [2]: 480 u/L | BLOOD UREA NITROGEN [2]: 16.33 mg/dL | CARBON DIOXIDE [2]: 16 mmol/L | CHLORIDE [2]: 104.33 MEQ/L | CHOLESTEROL [2]: 83 mg/dL | CREATINE PHOSPHOKINASE [2]: 1211.67 u/L | CREATININE [2]: 0.22 mg/dL | LIPASE [2]: 35 u/L | POTASSIUM [2]: 7.1 MEQ/L | TOTAL BILIRUBIN [2]: 0.2 mg/dL | TOTAL PROTEIN [2]: 5.33 G/DL | ABSOLUTE BASOPHIL [3]: 0 CELLS/uL | ABSOLUTE EOSINOPHIL [3]: 179.33 CELLS/uL | ABSOLUTE LYMPHOCYTE [3]: 10736 CELLS/uL | ABSOLUTE MONOCYTE [3]: 0 CELLS/uL | ABSOLUTE SEGMENTED NEUTROPHIL [3]: 2451.33 CELLS/uL | BASOPHIL [3]: 0% | EOSINOPHIL [3]: 1.33% | ERYTHROCYTE COUNT [3]: 6.48 x10E6/uL | HEMATOCRIT [3]: 40.57% | LEUKOCYTE COUNT [3]: 13.37 x10E3/uL | LYMPHOCYTE [3]: 81.33% | MEAN CORPUSCULAR HEMOGLOBIN [3]: 23.67 pg | MEAN CORPUSCULAR HEMOGLOBIN CONCENTRATION [3]: 37.87 G/DL | MEAN CORPUSCULAR VOLUME [3]: 62.53 fL | MONOCYTE [3]: 0% | NEUTROPHIL [3]: 17.33% | NUCLEATED RED BLOOD CELLS [3]: 0.33 /100WBC | PLATELET COUNT [3]: 1066.33 x10E3/uL | ALANINE AMINOTRANSFERASE [3]: 34 u/L | ALBUMIN [3]: 3.63 G/DL | ALKALINE PHOSPHATASE [3]: 197 u/L | ASPARTATE AMINOTRANSFERASE [3]: 117.33 u/L | BLOOD UREA NITROGEN [3]: 15 mg/dL | CARBON DIOXIDE [3]: 16 mmol/L | CHLORIDE [3]: 107.67 MEQ/L | CHOLESTEROL [3]: 65.67 mg/dL | CREATINE PHOSPHOKINASE [3]: 1121 u/L | CREATININE [3]: 0.19 mg/dL | LIPASE [3]: 14.33 u/L | POTASSIUM [3]: 7.12 MEQ/L | TOTAL BILIRUBIN [3]: 0.13 mg/dL | TOTAL PROTEIN [3]: 5.2 G/DL | ABSOLUTE BASOPHIL [4]: 0 CELLS/uL | ABSOLUTE EOSINOPHIL [4]: 0 CELLS/uL | ABSOLUTE LYMPHOCYTE [4]: 6405 CELLS/uL | ABSOLUTE MONOCYTE [4]: 112.67 CELLS/uL | BASOPHIL [4]: 0% | EOSINOPHIL [4]: 0% | ERYTHROCYTE COUNT [4]: 6.37 x10E6/uL | HEMATOCRIT [4]: 39.37% | LEUKOCYTE COUNT [4]: 8 x10E3/uL | LYMPHOCYTE [4]: 80% | MEAN CORPUSCULAR HEMOGLOBIN [4]: 24.77 pg | MEAN CORPUSCULAR HEMOGLOBIN CONCENTRATION [4]: 40.07 G/DL | MEAN CORPUSCULAR VOLUME [4]: 61.7 fL | MONOCYTE [4]: 1.33% | NEUTROPHIL [4]: 18.67% | NUCLEATED RED BLOOD CELLS [4]: 0 /100WBC | PLATELET COUNT [4]: 1071 x10E3/uL | ALANINE AMINOTRANSFERASE [4]: 55.67 u/L | ALBUMIN [4]: 3.17 G/DL | ALKALINE PHOSPHATASE [4]: 195.67 u/L | ASPARTATE AMINOTRANSFERASE [4]: 225.67 u/L | BLOOD UREA NITROGEN [4]: 13.33 mg/dL | CARBON DIOXIDE [4]: 20 mmol/L | CHLORIDE [4]: 113.33 MEQ/L | CHOLESTEROL [4]: 88 mg/dL | CREATINE PHOSPHOKINASE [4]: 1322.67 u/L | CREATININE [4]: 0.12 mg/dL | LIPASE [4]: 7.67 u/L | POTASSIUM [4]: 7 MEQ/L | TOTAL BILIRUBIN [4]: 0.2 mg/dL | TOTAL PROTEIN [4]: 4.47 G/DL
